Results reported in the NIST ThermoML archive (doi:10.1016/j.fluid.2010.07.005).

How the values were obtained:
[1] = molar heat capacity at constant pressure; xn = mol fraction of the nth substance listed; settings: 101.33 kPa, Liquid, Vacuum adiabatic calorimetry
[2] = excess molar enthalpy (molar enthalpy of mixing); xn = mol fraction of the nth substance listed; settings: 298.15 K, 101.33 kPa, Liquid, Flow calorimetry
[3] = xn = mol fraction of the nth substance listed; settings: 101.33 kPa, Liquid; for viscosity: Capillary tube (Ostwald / Ubbelohde) method

COP(=O)([O-])OC.Cn1cc[n+](C)c1 [1,3-dimethylimidazolium dimethylphosphate] + CO
Settings | molar heat capacity at constant pressure, 298.15 K [J/K/mol] | molar heat capacity at constant pressure, 303.15 K [J/K/mol] | molar heat capacity at constant pressure, 313.15 K [J/K/mol] | molar heat capacity at constant pressure, 323.15 K [J/K/mol] | viscosity, 298.15 K [mPa·s] | viscosity, 303.15 K [mPa·s] | viscosity, 308.15 K [mPa·s] | viscosity, 313.15 K [mPa·s] | viscosity, 318.15 K [mPa·s] | viscosity, 323.15 K [mPa·s]
[1], x1 = 0.202 | 130.82 | 144.77 | 169.01 | 190.07 | – | – | – | – | – | –
[1], x1 = 0.399 | 177.61 | 191.43 | 214.09 | 233.4 | – | – | – | – | – | –
[1], x1 = 0.591 | 215.46 | 225.28 | 246.8 | 262.54 | – | – | – | – | – | –
[1], x1 = 0.81 | 256.75 | 261.78 | 274.8 | 290.24 | – | – | – | – | – | –
[1], x1 = 1 | 282.83 | 296.61 | 310.83 | 321.05 | – | – | – | – | – | –
[3], x1 = 0.203 | – | – | – | – | 3.8 | 3.32 | 3.06 | 2.84 | 2.6 | 2.4
[3], x1 = 0.399 | – | – | – | – | 18.33 | 16.56 | 12.43 | 11.08 | 9.76 | 8.79
[3], x1 = 0.603 | – | – | – | – | 53.9 | 38.18 | 31.37 | 25.8 | 22.86 | 18.45
[3], x1 = 0.805 | – | – | – | – | 145.63 | 98.68 | 75.4 | 61.57 | 49.9 | 40.2
[3], x1 = 1 | – | – | – | – | 271.86 | 188.3 | 139.49 | 110.25 | 84.44 | 69.99

[2]
Settings | excess molar enthalpy [kcal/mol]
x1 = 0.165 | -0.539
x1 = 0.28 | -0.779
x1 = 0.466 | -0.783
x1 = 0.593 | -0.687
x1 = 0.744 | -0.475
x1 = 1 | 0

mass density [kg/m3], [3], Specific gravity balance
Settings | 298.15 K | 303.15 K | 308.15 K | 313.15 K | 318.15 K | 323.15 K
x1 = 0.203 | 1040.2 | 1037.1 | 1033.2 | 1030.2 | 1027.6 | 1025.1
x1 = 0.399 | 1158.3 | 1155.2 | 1151.2 | 1148.1 | 1147 | 1140.1
x1 = 0.603 | 1205.5 | 1201.4 | 1197.8 | 1194.1 | 1190.8 | 1188
x1 = 0.805 | 1236.4 | 1233 | 1229.7 | 1226.4 | 1223.1 | 1219.8
x1 = 1 | 1258.7 | 1255.9 | 1253 | 1249.1 | 1245.2 | 1241.5

COP(=O)([O-])OC.Cn1cc[n+](C)c1 [1,3-dimethylimidazolium dimethylphosphate] + O
Settings | molar heat capacity at constant pressure, 298.15 K [J/K/mol] | molar heat capacity at constant pressure, 303.15 K [J/K/mol] | molar heat capacity at constant pressure, 313.15 K [J/K/mol] | molar heat capacity at constant pressure, 323.15 K [J/K/mol] | viscosity, 298.15 K [mPa·s] | viscosity, 303.15 K [mPa·s] | viscosity, 308.15 K [mPa·s] | viscosity, 313.15 K [mPa·s] | viscosity, 318.15 K [mPa·s] | viscosity, 323.15 K [mPa·s]
[1], x1 = 0.21 | 116.48 | 124.21 | 147.96 | 171.34 | – | – | – | – | – | –
[1], x1 = 0.375 | 143.19 | 151.23 | 167.21 | 182.63 | – | – | – | – | – | –
[1], x1 = 0.57 | 197.42 | 205.75 | 220.8 | 232.9 | – | – | – | – | – | –
[1], x1 = 0.821 | 255.8 | 267.68 | 284.76 | 298.31 | – | – | – | – | – | –
[1], x1 = 1 | 282.83 | 296.61 | 310.83 | 321.05 | – | – | – | – | – | –
[3], x1 = 0.252 | – | – | – | – | 40.02 | 32.61 | 24.46 | 20.28 | 16.97 | 14.5
[3], x1 = 0.428 | – | – | – | – | 74.43 | 55.22 | 43.51 | 35.23 | 27.92 | 23.63
[3], x1 = 0.617 | – | – | – | – | 145.21 | 110.23 | 82.04 | 66.13 | 51.66 | 41.92
[3], x1 = 0.795 | – | – | – | – | 197.92 | 138.81 | 104.59 | 80.27 | 63.01 | 50.35
[3], x1 = 1 | – | – | – | – | 271.86 | 188.3 | 139.49 | 110.25 | 84.44 | 69.99

[2]
Settings | excess molar enthalpy [kcal/mol]
x1 = 0.104 | -1.12
x1 = 0.209 | -1.42
x1 = 0.369 | -1.54
x1 = 0.498 | -1.45
x1 = 0.604 | -1.28
x1 = 1 | 0

mass density [kg/m3], [3], Speicific gravity balance
Settings | 298.15 K | 303.15 K | 308.15 K | 313.15 K | 318.15 K | 323.15 K
x1 = 0.252 | 1233.4 | 1231 | 1227.9 | 1224 | 1220.8 | 1216.8
x1 = 0.428 | 1241.5 | 1239.4 | 1236.2 | 1233.6 | 1230.5 | 1226.2
x1 = 0.617 | 1248.5 | 1245.8 | 1241.8 | 1239.3 | 1236.1 | 1232.9
x1 = 0.795 | 1253.6 | 1250.5 | 1247.2 | 1243.9 | 1241.1 | 1236.8
x1 = 1 | 1258.7 | 1255.9 | 1253 | 1249.1 | 1245.2 | 1241.5

COP(=O)([O-])OC.Cn1cc[n+](C)c1 [1,3-dimethylimidazolium dimethylphosphate] + CCO
Settings | molar heat capacity at constant pressure, 298.15 K [J/K/mol] | molar heat capacity at constant pressure, 303.15 K [J/K/mol] | molar heat capacity at constant pressure, 313.15 K [J/K/mol] | molar heat capacity at constant pressure, 323.15 K [J/K/mol] | viscosity, 298.15 K [mPa·s] | viscosity, 303.15 K [mPa·s] | viscosity, 308.15 K [mPa·s] | viscosity, 313.15 K [mPa·s] | viscosity, 318.15 K [mPa·s] | viscosity, 323.15 K [mPa·s]
[1], x1 = 0.224 | 145.29 | 153.59 | 172.15 | 190.19 | – | – | – | – | – | –
[1], x1 = 0.408 | 193.74 | 205.3 | 227.82 | 247.28 | – | – | – | – | – | –
[1], x1 = 0.596 | 235.91 | 247.99 | 280.92 | 299.34 | – | – | – | – | – | –
[1], x1 = 0.803 | 258.54 | 267.73 | 289.85 | 304.85 | – | – | – | – | – | –
[1], x1 = 1 | 282.83 | 296.61 | 310.83 | 321.05 | – | – | – | – | – | –
[3], x1 = 0.202 | – | – | – | – | 6.83 | 5.98 | 5.3 | 4.83 | 4.32 | 3.94
[3], x1 = 0.414 | – | – | – | – | 22.99 | 19 | 16.21 | 14.15 | 12.35 | 11.03
[3], x1 = 0.562 | – | – | – | – | 48.76 | 38.45 | 30.8 | 26.47 | 22.23 | 19.27
[3], x1 = 0.807 | – | – | – | – | 137.88 | 105.91 | 80.22 | 63.76 | 50.57 | 42.11
[3], x1 = 1 | – | – | – | – | 271.86 | 188.3 | 139.49 | 110.25 | 84.44 | 69.99

[2]
Settings | excess molar enthalpy [kcal/mol]
x1 = 0.177 | -0.329
x1 = 0.307 | -0.481
x1 = 0.524 | -0.485
x1 = 0.665 | -0.377
x1 = 0.8 | -0.241
x1 = 1 | 0

mass density [kg/m3], [3], Specific gravity balance
Settings | 298.15 K | 303.15 K | 308.15 K | 313.15 K | 318.15 K | 323.15 K
x1 = 0.202 | 1000.6 | 996.6 | 992.7 | 989.7 | 986.9 | 983.2
x1 = 0.414 | 1116.5 | 1113.4 | 1109.8 | 1106.6 | 1103.5 | 1098.4
x1 = 0.562 | 1166.7 | 1163.4 | 1159.7 | 1156.2 | 1152.4 | 1148.5
x1 = 0.807 | 1223.2 | 1219.5 | 1216.8 | 1213.8 | 1211.4 | 1207.5
x1 = 1 | 1258.7 | 1255.9 | 1253 | 1249.1 | 1245.2 | 1241.5
